Experimental data reported in patent US20250163047A1, “HETEROCYCLIC COMPOUNDS, COMPOSITIONS THEREOF, AND METHODS OF TREATMENT THEREWITH” (BeiGene, Ltd., priority 2022, published 2025).

Tests used:
Cbl-b (aa36-427) = target: T1, Cbl-b (aa36-427) (Homo sapiens, UniProt Q13191); test: Co-expressed Cbl-b with BirA biochemical assay (CBLB/E2-Ub binding, HTRF); conditions: 0.6 nM Cbl-b co-expressed with BirA, HTRF; read-out: co-express CBLB/E2-Ub-binding assay IC50
T1 construct: Cbl-b (aa36-427, in-house); made in house
T1 sequence (Q13191 36-427): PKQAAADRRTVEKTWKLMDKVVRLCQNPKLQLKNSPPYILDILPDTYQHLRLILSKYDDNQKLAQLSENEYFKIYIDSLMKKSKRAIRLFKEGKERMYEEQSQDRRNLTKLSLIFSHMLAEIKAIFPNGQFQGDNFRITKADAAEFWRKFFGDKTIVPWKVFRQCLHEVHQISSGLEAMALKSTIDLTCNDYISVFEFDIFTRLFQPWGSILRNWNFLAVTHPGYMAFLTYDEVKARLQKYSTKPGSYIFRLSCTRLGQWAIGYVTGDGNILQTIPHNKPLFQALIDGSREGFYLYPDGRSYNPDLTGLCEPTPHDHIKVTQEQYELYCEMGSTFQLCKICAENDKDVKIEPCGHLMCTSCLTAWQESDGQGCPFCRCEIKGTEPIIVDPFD
From the text: (§1) The assay in the absence of a Cbl-b/Cbl inhibitor, where phosphorylation of Cbl-b/Cbl by the Src kinase allows UbcH5B-Ub to bind to Cbl-b/Cbl and brings the Bodipy-Fluorescein tagged ubiquitin in proximity to the streptavidin-terbium bound to the N-terminal biotinylated Avi-tagged Cbl-b/Cbl. […] The lack of a FRET signal indicates Cbl-b/Cbl is inhibited by the Cbl-b/Cbl inhibitor.

Cbl (aa49-434) = target: T2, Cbl (aa49-434) (Homo sapiens, UniProt P22681); test: Co-expressed Cbl with BirA biochemical assay (CBL/E2-Ub binding, HTRF); conditions: 0.6 nM Cbl co-expressed with BirA, read-out: co-express CBL/E2-Ub-binding assay IC50
T2 construct: Cbl (aa49-434, in-house); made in house
T2 sequence (P22681 49-434): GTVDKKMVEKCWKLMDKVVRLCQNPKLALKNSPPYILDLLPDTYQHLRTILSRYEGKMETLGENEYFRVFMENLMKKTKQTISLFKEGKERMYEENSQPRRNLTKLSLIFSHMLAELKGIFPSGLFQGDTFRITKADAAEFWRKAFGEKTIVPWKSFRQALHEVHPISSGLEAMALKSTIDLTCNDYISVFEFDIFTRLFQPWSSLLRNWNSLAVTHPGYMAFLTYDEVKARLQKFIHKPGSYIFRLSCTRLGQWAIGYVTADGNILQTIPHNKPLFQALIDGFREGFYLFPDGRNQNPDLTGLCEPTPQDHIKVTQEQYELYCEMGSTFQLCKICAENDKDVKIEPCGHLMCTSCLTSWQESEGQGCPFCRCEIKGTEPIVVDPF
From the text: as §1

| IC50 (Cbl-b (aa36-427)) [nM] | IC50 (Cbl (aa49-434)) [nM] | SMILES |
| --- | --- | --- |
| 1.2 | 2.3 | CC(C)CNCc1cc(C(=O)Nc2cncc([C@]3(c4nncn4C)C[C@@H](C)C3)c2)c2nccn2c1 [Compound A78, 6-((isobutylamino)methyl)-N-(5-((1s, 3s)-3-methyl-1-(4-methyl-4H-1,2,4-triazol-3-yl)cyclobutyl)pyridin-3-yl)imidazo[1,2-a]pyridine-8-carboxamide] |
| 2.7 | 6.3 | Cn1cnnc1C[C@]1(c2cccc(NC(=O)c3cc(CNC4CCCCC4)c4c(n3)C(C)(C)CO4)c2)C[C@H](C#N)C1 [Compound C48, N-(3-((1r, 3r)-3-cyano-1-((4-methyl-4H-1,2,4-triazol-3-yl)methyl)cyclobutyl)phenyl)-7-((cyclohexylamino)methyl)-3,3-dimethyl-2,3-dihydrofuro[3,2-b]pyridine-5-carboxamide] |
| 1.4 | 6.1 | Cn1cnnc1[C@]1(c2cccc(NC(=O)c3cc(CNCC4(C)CCCC4)c4c(n3)C(C)(C)CN4)c2)C[C@H](CC#N)C1 [Compound C22, 3,3-dimethyl-7-({[(1-methylcyclopentyl)methyl]amino}methyl)-N-{3-[(1s, 3s)-3-(cyanomethyl)-1-(4-methyl-1,2,4-triazol-3-yl)cyclobutyl]phenyl}-1H,2H-pyrrolo[3,2-b]pyridine-5-carboxamide] |
| 3.9 | 17 | Cn1cnnc1[C@]1(c2cccc(NC(=O)c3cc(CNC4(C)CCC4)c4c(n3)C3(CC3)CN4)c2)C[C@H](CC#N)C1 [Compound C31, N-(3-((1s, 3s)-3-(cyanomethyl)-1-(4-methyl-4H-1,2,4-triazol-3-yl)cyclobutyl)phenyl)-7′-(((1-methylcyclobutyl)amino)methyl)-1′,2′-dihydrospiro[cyclopropane-1,3′-pyrrolo[3,2-b]pyridine]-5′-carboxamide] |
| 1.3 | 14.2 | C[C@H]1CCCN(Cc2cc(C(=O)Nc3cccc([C@]4(c5nncn5C)C[C@@H](CC#N)C4)c3)nc3c(F)c[nH]c23)C1 [Compound B11, N-(3-((1s,3R)-3-(cyanomethyl)-1-(4-methyl-4H-1,2,4-triazol-3-yl)cyclobutyl)phenyl)-3-fluoro-7-(((S)-3-methylpiperidin-1-yl)methyl)-1H-pyrrolo[3,2-b]pyridine-5-carboxamide] |
| 1.6 | 13 | C[C@H]1CCCN(Cc2cc(C(=O)Nc3cccc([C@]4(c5nncn5C)C[C@@H](CC#N)C4)c3)nc3sccc23)C1 [Compound B18, 4-{[(3S)-3-methylpiperidin-1-yl]methyl}-N-{3-[(1s, 3s)-3-(cyanomethyl)-1-(4-methyl-1,2,4-triazol-3-yl)cyclobutyl]phenyl}thieno[2,3-b]pyridine-6-carboxamide] |
| 2.8 | 49.5 | Cn1cnnc1[C@]1(c2cccc(NC(=O)c3cc(CNCC4(C)CCC4)c4c(n3)C(C)(C)CO4)c2)C[C@H](CC#N)C1 [Compound C25, N-(3-((1s, 3s)-3-(cyanomethyl)-1-(4-methyl-4H-1,2,4-triazol-3-yl)cyclobutyl)phenyl)-3,3-dimethyl-7-((((1-methylcyclobutyl)methyl)amino)methyl)-2,3-dihydrofuro[3,2-b]pyridine-5-carboxamide] |
| 2.2 | 26 | Cc1cnc2c(C(=O)Nc3cncc([C@]4(c5nncn5C)C[C@@H](C)C4)c3)cc(CN[C@@H](C)C3CC3)cn12 [Compound A64, 6-((((S)-1-cyclopropylethyl)amino)methyl)-3-methyl-N-(5-((1s,3R)-3-methyl-1-(4-methyl-4H-1,2,4-triazol-3-yl)cyclobutyl)pyridin-3-yl)imidazo[1,2-a]pyridine-8-carboxamide] |
| 1.1 | 9.2 | C[C@H](NCc1cc(C(=O)Nc2cccc([C@]3(c4nncn4C)C[C@@H](C)C3)c2)nc2c1CCC2(F)F)C1CC1 [Compound C60, 4-((((S)-1-cyclopropylethyl)amino)methyl)-7,7-difluoro-N-(3-((1s,3R)-3-methyl-1-(4-methyl-4H-1,2,4-triazol-3-yl)cyclobutyl)phenyl)-6,7-dihydro-5H-cyclopenta[b]pyridine-2-carboxamide] |
| 1.4 | 11.4 | Cn1cnnc1[C@]1(c2cccc(NC(=O)c3cc(CN[C@H]4CCC(F)(F)C4)cn4ccnc34)c2)C[C@H](CC#N)C1 [Compound A23, N-(3-((1s,3R)-3-(cyanomethyl)-1-(4-methyl-4H-1,2,4-triazol-3-yl)cyclobutyl)phenyl)-6-((((S)-3,3-difluorocyclopentyl)amino)methyl)imidazo[1,2-a]pyridine-8-carboxamide] |
| 6 | 18.7 | C[C@H]1CCCN(Cc2cc(C(=O)Nc3cccc([C@]4(c5nncn5C)C[C@@H](C)C4)c3)c3nc(F)cn3c2)C1 [Compound A8, 2-fluoro-N-(3-((1s,3R)-3-methyl-1-(4-methyl-4H-1,2,4-triazol-3-yl)cyclobutyl)phenyl)-6-(((S)-3-methylpiperidin-1-yl)methyl)imidazo[1,2-a]pyridine-8-carboxamide] |
| 3.3 | 14.8 | Cn1cnnc1[C@]1(c2cncc(NC(=O)c3cc(CNCC4CCC4)c4c(n3)C(F)(F)CC4)c2)C[C@H](C)C1 [Compound C52, 4-{[(cyclobutylmethyl)amino]methyl}-7,7-difluoro-N-{5-[(1r, 3s)-3-methyl-1-(4-methyl-1,2,4-triazol-3-yl)cyclobutyl]pyridin-3-yl}-5H,6H-cyclopenta[b]pyridine-2-carboxamide] |
| 0.7 | 1.1 | C[C@H](NCc1cc(C(=O)Nc2cccc([C@]3(c4nncn4C)C[C@@H](C)C3)c2)nc2cc[nH]c12)C1CCC1 [Compound B35, 7-((((S)-1-cyclobutylethyl)amino)methyl)-N-(3-((1s,3R)-3-methyl-1-(4-methyl-4H-1,2,4-triazol-3-yl)cyclobutyl)phenyl)-1H-pyrrolo[3,2-b]pyridine-5-carboxamide] |
| 1.1 | 4.9 | Cn1cnnc1[C@]1(c2cccc(NC(=O)c3cc(CNCC(C)(C)C)cn4ccnc34)c2)C[C@H](CC#N)C1 [Compound A32, N-(3-((1s, 3s)-3-(cyanomethyl)-1-(4-methyl-4H-1,2,4-triazol-3-yl)cyclobutyl)phenyl)-6-((neopentylamino)methyl)imidazo[1,2-a]pyridine-8-carboxamide] |
| 6.3 | 100 | Cn1cnnc1[C@]1(c2cccc(NC(=O)c3cc(CNC4(C)CCC4)c4c(n3)C(C)(C)CO4)c2)C[C@H](CC#N)C1 [Compound C23, N-(3-((1s, 3s)-3-(cyanomethyl)-1-(4-methyl-4H-1,2,4-triazol-3-yl)cyclobutyl)phenyl)-3,3-dimethyl-7-(((1-methylcyclobutyl)amino)methyl)-2,3-dihydrofuro[3,2-b]pyridine-5-carboxamide] |
| 1.5 | 7 | C[C@H](NCc1cc(C(=O)Nc2cncc([C@]3(c4nncn4C)C[C@@H](C)C3)c2)nc2c1CCC2(F)F)C1CCC1 [Compound C41, 4-({[(1S)-1-cyclobutylethyl]amino}methyl)-7,7-difluoro-N-{5-[(1r, 3s)-3-methyl-1-(4-methyl-1,2,4-triazol-3-yl)cyclobutyl]pyridin-3-yl}-5H,6H-cyclopenta[b]pyridine-2-carboxamide] |
| 1.8 | 7.6 | Cn1cnnc1[C@]1(c2cccc(NC(=O)c3cc(CNCC4CCCC4)cn4ccnc34)c2)C[C@H](C)C1 [Compound A42, 6-(((cyclopentylmethyl)amino)methyl)-N-(3-((1s, 3s)-3-methyl-1-(4-methyl-4H-1,2,4-triazol-3-yl)cyclobutyl)phenyl)imidazo[1,2-a]pyridine-8-carboxamide] |
| 1.8 | 5.2 | Cn1cnnc1C[C@]1(c2cccc(NC(=O)c3cc(CNCC4CCCC(F)(F)C4)c4c(n3)C(C)(C)CC4)c2)C[C@H](C#N)C1 (stereo partly shown) [Compound C15, N-(3-((1r, 3r)-3-cyano-1-((4-methyl-4H-1,2,4-triazol-3-yl)methyl)cyclobutyl)phenyl)-4-((((3,3-difluorocyclohexyl)methyl)amino)methyl)-7,7-dimethyl-6,7-dihydro-5H-cyclopenta[b]pyridine-2-carboxamide] |
| 1.5 | 3.3 | Cn1cnnc1C[C@]1(c2cccc(NC(=O)c3cc(CNC4(C)CC4)c4c(n3)C(C)(C)CN4)c2)C[C@H](C#N)C1 [Compound C44, 3,3-dimethyl-7-{[(1-methylcyclopropyl)amino]methyl}-N-{3-[(1r, 3r)-3-cyano-1-[(4-methyl-1,2,4-triazol-3-yl)methyl]cyclobutyl]phenyl}-1H,2H-pyrrolo[3,2-b]pyridine-5-carboxamide] |
| 0.9 | 1.1 | C[C@H](NCc1cc(C(=O)Nc2cncc([C@]3(c4nncn4C)C[C@@H](C)C3)c2)c2ncc(F)n2c1)C1CCC1 [Compound A50, 6-({[(1S)-1-cyclobutylethyl]amino}methyl)-3-fluoro-N-{5-[(1r, 3s)-3-methyl-1-(4-methyl-1,2,4-triazol-3-yl)cyclobutyl]pyridin-3-yl}imidazo[1,2-a]pyridine-8-carboxamide] |
